Test results as given in patent US11479536B1 (King Abdulaziz University, priority 2022, dated 2022).

Columns and labels:
[1] = tested on: HL60 cell line; assay: Cell viability assay of HL60 cell line (CellTiter-Blue); assay type: cell-based, human; settings: HL60, 48 h incubation; read-out: IC50 against leukemia cell lines HL60
Procedure: HL60, K562, MV4-11 and NB4 were purchased from CLS Cell Line Service GmbH (Eppelheim, Germany). All cell lines were cultured in RPMI-1640 medium supplemented with 10% fetal bovine serum (FBS) (Thermo Fisher Scientific) and 0.1% ciprofloxacin (2.5 mg/ml; Cipla Limited; Mumbai, India), and were maintained at 37° C. in the presence of 21% O2 and 5% CO2.
Cell viability was determined using the CellTiter®-Blue Cell Viability Assay kit (Promega, Madison, Wis., USA). Approximately 10^4 cells were counted and plated in a 96-well plate in the presence of test compounds ranging from 0.01 to 10 or 20 μM in triplicate and were incubated for 48 h at 37° C. in a humidified incubator. After the incubation period was complete, 20 μL of CellTiter®-Blue Cell Viability Assay reagent was added to each well and incubated for additional 2 h for the development of florescence. Florescence was measured at Ex/Em 540/590 on SpectraMax® i3 Multi-Mode microplate reader (Molecular Devices, LLC; San Jose, Calif., USA) and plotted against drug concentration to determine the IC50 of the test compounds. The IC50 was obtained by non-linear regression model using GraphPad Prism 6.07 (GraphPad Software, Inc, USA).

[2] = tested on: T47D spheroids; assay: Mitochondrial membrane potential assay (JC-1), T47D spheroids; assay type: cell-based, human; settings: 48 h post treatment at IC50, control 15.67±2.05%
Procedure: The mitochondrial membrane potential was investigated in response to the treatment with MAK compounds. This assay depends on the measurement of the aggregate fluorescence for Tetraethylbenzimidazolylcarbocyanine iodide (JC-1). This cationic dye accumulates in the energized mitochondria, and the increase in aggregate fluorescence indicates mitochondrial […] while the reduction indicates the depolarization state.
After growing the cells and treating them with MAK compound for 48 hours, 2 μM of JC-1 final concentration was added and the mixture was incubated for 1 hour at 37° C. in presence of 5% CO2. Then, the samples were analyzed using flow cytometry. Mean values and standard deviation of replicates were calculated in comparison to the control group.

[3] = tested on: human skin fibroblasts (HSF); assay: Cytotoxicity on human skin fibroblasts (SRB method); assay type: cell-based
Procedure: In addition to have a good physicochemical profile, it is important for a studied lead to differentiate between cancer cells and highly proliferating non-cancerous cells. Therefore, we assessed compounds MAK-1 and MAK-6 for both the in silico and in vitro physicochemical characteristics as well as for cytotoxic effect on human skin fibroblasts (SKF) cell lines. Cytotoxicity was determined using Sulforhodamine B (SRB) method. Exponentially growing human skin fibroblast cells (Nawah Scientific, Cairo, Egypt) were collected using 0.25% Trypsin-EDTA and were then seeded in 96-well plates at a density of 1000-2000 cells/well in 10% FBS and penicillin/streptomycin supplemented RPMI-1640 medium. After 24 h, cells were treated with different concentrations of test compounds and incubated for 72 h at 37° C. in a humidified atmosphere containing 5% CO2. Next, the cells were fixed by adding trichloroacetic acid (TCA, 10% final conc. in wells) directly to the wells and incubated for 1 h at 4° C., then cells were washed with distilled water 5 times to remove excess TCA, media, serum proteins, and metabolites, followed by air drying. After that, the fixed cells were stained with 0.4% SRB dissolved in 1% acetic acid for 10 min at room temperature, and excess stain was removed by quickly rinsing with 1% acetic acid. The residual acetic acid was removed completely by air drying the plates for 24 h, and the dye was solubilized with Tris buffer (pH=7.4, 10 mM) for 5 min on a shaker at 1600 rpm. The optical density (OD) of each well was measured spectrophotometrically at 564 nm with an ELISA microplate reader (ChroMate-4300, FL, USA). The IC50 values were calculated according to the equation for Boltzman sigmoidal concentration—response curve using the nonlinear regression fitting models (Graph Pad, Prism Version 5).

[4] = Stability in mouse liver microsomes; assay type: in vitro ADME
Procedure: Both mouse and human liver microsomes were obtained from Merck KGaA, (Darmstadt, Germany), Cat. No. M9441 (Mouse liver microsomes) and M0317 (Human liver microsomes). Assays were conducted in triplicate in 96-deep well polypropylene plates. […] At five time points, reaction mixture aliquots were transferred to 96-shallow well stop plates on ice containing acetonitrile with 0.1 μM propafenone. […] Standard curves for test compound were generated using 5 concentrations in triplicate that were processed as above but with zero incubation time. Stop plates were centrifuged at 2000 g for 10 min and then supernatant aliquots were transferred to a Waters Aquity® UPLC 700 μL 96-well sample plate with cap mat (Waters, Milford, Mass.). The amount of compound remaining in the supernatant was quantified by LC/MS/MS using a Waters Xevo TQ MS (electrospray positive mode) coupled to a Waters Aquity® UPLC (BEH column, C18). Propafenone was used as the internal standard. GraphPad® Prism v 5.04 was used for nonlinear fitting of time course data to generate t1/2 values.

[5] = Stability in mouse plasma; assay type: in vitro ADME; settings: 37° C., duration of the assay (5 h)
Procedure: The assay is conducted at 37° C. in triplicate. Test compounds or procaine (positive control) are tested at a final concentration of 1 μM in either 2.5% DMSO/CD-1 mouse plasma (Innovative Research, Novi, Mich.; sodium heparin added as anticoagulant; pH adjusted to 7.4 with 2N HCl on day of use) or 2.5% DMSO/PBS (pH 7.4: 136.9 mM NaCl, 2.68 mM KCl, 8.1 mM Na2HPO4, 1.47 mM KH2PO4, 0.9 mM CaCl2, 0.49 mM MgCl2). At seven time points, reaction mixture aliquots were transferred to 96-shallow well stop plates on ice containing acetonitrile with 0.1 μM propafenone. Samples were analyzed by LC/MS/MS on a Waters Xevo TQ instrument as described above using positive electrospray ionization. Assay acceptance criteria was 20% for all standards and 25% for the LLOQ. GraphPad® Prism v. 5.04 was used for nonlinear fitting of data to generate t1/2 values.

COc1cccc(C(=O)Nc2ccc(CC(=O)NCc3ccccc3)cc2)c1 [MAK-1, N-(4-(2-(benzylamino)-2-oxoethyl)phenyl)-3-methoxybenzamide]
IC50 [1]: 3.27 ± 0.15 µM
depolarized cells (mitochondrial membrane), mean±SEM [2]: 36.77±1.17%
normal cells inhibited at x-fold higher concentrations than MCF7 breast cancer cells ([3]; HSF vs MCF7): 7 fold
loss of compound in mouse liver microsomes ([4]; lacking NADPH): non-significant loss
half-life ([4]; male, CD-1, mouse, pooled liver microsomes, in the presence of NADPH, 37° C., read-out: stability to oxidative metabolism in mouse liver microsomes (t1/2)): 35 min
stability in mouse plasma [5]: stable

O=C(Cc1ccc(NC(=O)c2cccc(Cl)c2)cn1)NCc1ccccc1 [MAK-6, N-(6-(2-(benzylamino)-2-oxoethyl)pyridin-3-yl)-3-chlorobenzamide]
depolarized cells (mitochondrial membrane), mean±SEM [2]: 32.77±0.54%
safety to normal cells (human skin fibroblasts) ([3]; HSF, SRB, 72 h): highly safe
